The results in this text go back to patent publication EP1592418B1, “USE OF ENDOCANNABINOID-LIKE COMPOUNDS FOR TREATING CNS DEGENERATIVE DISORDERS” (Research & Innovation S.p.A., priority 2003, dated 2004).

What is called solubility is how much of the substance goes into solution per volume.

Data set [1] can be described thus: Solubility (physico-chemical properties). It is filed as physicochemical. The note with it: for solubility: organic solvent or mixture, in DMSO and in chloroform, read-out: solubility in organic solvents.
A further data set relates to Jurkat cells. The data set can be described thus: Evaluation of cellular viability by MTT assay. The conditions noted are these: 10 µM, incubated 18-24 hr, MTT, absorbance 570 nm. It is filed as cell-based, human. Here is the method:
Jurkat, an acute T-lymphoblastic leukemia cell line generated from a person, have been used. Cell culture have been cultured in RPMI-1640 culture medium containing 10% FBS.
Jurkat cells were cultured at 1x10^5 cells/ml in RPMI 1640 medium supplemented with 10% fetal bovine serum (FBS), 2mM L-glutamine and 100 U/ml penicillin + 100 ug/ml streptomycin.
To detect drug effect in vitro, MTT [3-(4,5-dimethylthiazol-2-yl)-2,5-diphenyltetrazolium bromide] assay was used as described (Carmichael J et al., 1987 Cancer Res. 47, 936-42). Briefly, cells were seeded in triplicate on 96-well culture plates at a density of 20000 cells/well. The drugs were added in order to have the final concentration of 10 µM (1 µl of a solution of 10mM in DMSO) and incubated for 18-24 hr. Then MTT (0.5 mg/ml) was added to each well, and plates were incubated for an additional 1 to 3 hr in the dark at 37 °C. After this time the MTT solution was aspirated from the wells and 0.1 ml of DMSO was added. The plates were allowed to stand for 10 min, and then the absorbance was determined in a SpectraCount (Packard) microplate reader at 570 nm. The drug effect was determined by comparing absorbances of treated and untreated cells.
A general note: Tetrazolium assays rely on reduction of a dye to a coloured formazan, in cell work by metabolically active cells.

Data set [2] relates to reverse passive Arthus reaction, mouse ear pinna. The experiment in a line: Reverse passive Arthus reaction (RPA) in the mouse ear pinna: oedema and Evans blue extravasation. It is filed as in vivo. The note with it: mouse ear; for Extravasation / Riduction % (extravasation): 10 mg/Kg i.p.; for Extravasation: Evans blue density at 620 nm in ear homogenate supernatant, Vehicle 0,90±0,06, Naïve 0,04±0,01; for Oedema (mg): 10 mg/Kg intraperitoneally 1 hour before induction, weight increase of 8 mm punch vs contralateral ear, three hours after antigen, Vehicle 49,8 ± 1,2, Naive 23,7 ± 1,2; for Riduction % (extravasation): reduction of extravasation versus Vehicle (0). An excerpt: The Arthus model (RPA) is a model of immune-complex mediated tissue damage that involves the passive subcutaneous introduction of an antibody and the systemic administration of the corresponding antigen. This inflammatory model has been used to test the in vivo activity of the synthesised molecules.
The reverse passive Arthus reaction is induced, in the mouse ear pinna, by the subcutaneous injection of an excess of IgG anti human albumin followed by i.v. adiministration of the corresponding Ag (i.e. human albumin) together with Evans blue, 2 mg for each mouse, for the evaluation of extravasation.
(§1) The tested molecules were solubilised in DMSO, cremophor and PBS in a ratio of 1:1:18 and administered usually by intraperitonelly at the dosage of 10 mg/Kg 1 hour before the induction of anafilactic reaction. The animals were sacrificed 3 hours after the molecule administration.
The oedema and the extravasations are evaluated tree hours after the i.v. administration of the antigen. The oedema is evaluated as the increase of weight of lesioned ear area dissected by a 8 mm biopsy punch as compared to the contralateral unlesioned auricular tissues. The extravasation is measured determining the Evans blue density at 620 nm in the supernatants deriving from ear homogenates following centrifugation at 10000 x g for 20 min.

The nature of data set [3]: Rectal temperature (central cannabinoid effect, hypothermia). In kind it is in vivo, mouse. The note with it: treated animals; Vehicle 0,1 ± 0,2. Here is the method: as §1
TABLE 4. Rectal temperature in animals that have been treated with cannabinoids, endocannabinoids or molecules that are object of the present invention. Note a profound hypothermia induced by synthetic cannabinoid such as Win 55,212 or the endocannabinoid Anandamide while no alteration was induced by molecules that are object of the present invention.

On to `CCCCCCCCCCCCCCCCCC(=O)NCCC(C)C` [Example 36, N-isopentyl-stearoyl amide], for which, in data set [1], the solubility was above 10000 µg/mL and the solubility in water entry is on record as “scarcely soluble”. Further, the “Growth inhibition (% of control)” value in the data set with Jurkat cells is on record as 30.2 % of control. In addition, in data set [2], the Extravasation is reported as 0,52±0,05, the “Oedema (mg)” value is listed as 33,7 ± 3.2 mg and the “Riduction % (extravasation)” value was 42.7%. In data set [3], the “ΔT (°C) rectal temperature” value is 0,1 ± 0,1 °C.

With `CCCCCCCCCCCCCCCCCC(=O)NC1CCCC1` [Example 38, N-cyclopentyl-stearoyl amide], in data set [1], the solubility is above 10000 µg/mL and the solubility in water entry is listed as “scarcely soluble”. Moreover, the “Growth inhibition (% of control)” value in the data set with Jurkat cells is on record as 31.8 % of control. In data set [2], the Extravasation is given as 0,51±0,14, the “Oedema (mg)” value is reported as 32,3 ± 3.3 mg and the “Riduction % (extravasation)” value was found to be 43.4%. For the same compound, the “ΔT (°C) rectal temperature” value in data set [3] is 0,2 ± 0,2 °C.
